# Experimental data taken from ChEMBL document CHEMBL1130853, “Synthesis and biological properties of new 1 beta-methylcarbapenems” (Bioorg Med Chem Lett, 1998).
# Experiments:
# [1] = system: Klebsiella aerogenes; assay: Antibacterial activity against Klebsiella aerogenes 1522E; format: functional
# [2] = system: Pseudomonas aeruginosa; assay: microbe, parasite or virus in culture; format: functional
# Description: Compound was evaluated for antibacterial activity against Pseudomonas aeruginosa 1592E
# [3] = system: Pseudomonas aeruginosa; assay: microbe, parasite or virus in culture; format: functional; remark: listed apart in the source
# Description: Antibacterial activity against Pseudomonas aeruginosa 1771M
# [4] = system: Salmonella typhimurium; assay: Antibacterial activity against Salmonella Typhimurium; format: functional, Salmonella enterica subsp. enterica serovar Typhimurium; details: Salmonella enterica
# [5] = system: Enterococcus faecium; assay: Antibacterial activity against Streptococcus faecium MD 8b; format: functional
# [6] = system: Escherichia coli; assay: microbe, parasite or virus in culture; format: functional
# Description: Antibacterial activity against Escherichia coli 1507E
# [7] = system: Staphylococcus aureus; assay: Antibacterial activity against Staphylococcus aureus SG 511; format: functional
# [8] = Antibacterial activity against Enterobacter cloacae 1321E; format: functional
# [9] = system: Streptococcus pyogenes; assay: Antibacterial activity against Streptococcus pyogenes 77A; format: functional
# [10] = molecular target: T1, Dipeptidase 1 (Sus scrofa) (UniProt P22412); assay: Compound was evaluated for relative rate of hydrolysis to imipenem by partially purified porcine renal Dehydropeptidase-1; set-up: scale not given: the % may be the effect or the level left
# T1 sequence (whole entry): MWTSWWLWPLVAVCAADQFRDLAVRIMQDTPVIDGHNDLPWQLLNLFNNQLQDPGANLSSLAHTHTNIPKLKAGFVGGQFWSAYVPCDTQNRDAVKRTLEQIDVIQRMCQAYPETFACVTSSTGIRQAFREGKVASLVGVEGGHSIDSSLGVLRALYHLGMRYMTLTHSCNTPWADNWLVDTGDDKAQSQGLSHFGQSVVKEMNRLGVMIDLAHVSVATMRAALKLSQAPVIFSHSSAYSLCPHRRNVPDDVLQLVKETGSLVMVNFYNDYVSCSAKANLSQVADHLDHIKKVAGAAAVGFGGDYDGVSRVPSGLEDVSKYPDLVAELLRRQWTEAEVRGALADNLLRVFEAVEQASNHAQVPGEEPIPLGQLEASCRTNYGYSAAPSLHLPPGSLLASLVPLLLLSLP
# [11] = Time taken by the compound to reach maximum concentration.; format: ADME
# [12] = system: Pseudomonas aeruginosa; assay: Compound was tested for in vivo protective activity against Pseudomonas aeruginosa 1771M at a single subcutaneous administration in mice.; format: functional; details: sc, read-out: PD50
# [13] = system: Escherichia coli; assay: Compound was tested for in vivo protective activity against Escherichia coli 078 at a single subcutaneous administration in mice.; format: functional; details: sc, read-out: PD50
# [14] = system: Streptococcus pyogenes; assay: Compound was tested for in vivo protective activity against Streptococcus pyogenes 77A at a single subcutaneous administration in mice.; format: functional; details: sc, read-out: PD50
MIC [1],MIC [2],MIC [3],MIC [4],MIC [5],MIC [6],MIC [7],MIC [8],MIC [9],Structure (SMILES),Stability [10],Tmax [11],ED50 [12],ED50 [13],ED50 [14]
0.049 µg/mL,0.391 µg/mL,0.391 µg/mL,0.049 µg/mL,12.5 µg/mL,0.025 µg/mL,0.195 µg/mL,0.025 µg/mL,0.007 µg/mL,C[C@@H](O)[C@H]1C(=O)N2C(C(=O)O)=C(S[C@@H]3CN[C@H](C(=O)NCCS(=O)(=O)NCCO)C3)[C@H](C)[C@H]12,–,–,–,–,–
0.049 µg/mL,1.56 µg/mL,0.781 µg/mL,0.049 µg/mL,12.5 µg/mL,0.025 µg/mL,0.391 µg/mL,0.025 µg/mL,0.013 µg/mL,C[C@@H](O)[C@H]1C(=O)N2C(C(=O)O)=C(S[C@@H]3CN[C@H](C(=O)NCCS(=O)(=O)N(C)CCO)C3)[C@H](C)[C@H]12,–,–,–,–,–
0.049 µg/mL,0.391 µg/mL,0.369 µg/mL,0.025 µg/mL,12.5 µg/mL,0.025 µg/mL,0.195 µg/mL,0.025 µg/mL,0.013 µg/mL,CNS(=O)(=O)CCNC(=O)[C@@H]1C[C@H](SC2=C(C(=O)O)N3C(=O)[C@H]([C@@H](C)O)[C@H]3[C@H]2C)CN1,–,–,–,–,–
0.098 µg/mL,0.391 µg/mL,0.391 µg/mL,0.098 µg/mL,12.5 µg/mL,0.049 µg/mL,0.391 µg/mL,0.025 µg/mL,0.007 µg/mL,C[C@@H](O)[C@H]1C(=O)N2C(C(=O)O)=C(S[C@@H]3CN[C@H](C(=O)NCCC(=O)NCCO)C3)[C@H](C)[C@H]12,–,–,–,–,–
0.098 µg/mL,50 µg/mL,1.56 µg/mL,0.098 µg/mL,12.5 µg/mL,0.049 µg/mL,0.391 µg/mL,0.049 µg/mL,0.013 µg/mL,C[C@@H](O)[C@H]1C(=O)N2C(C(=O)O)=C(S[C@@H]3CN[C@H](C(=O)NCCS(=O)(=O)N4CCOCC4)C3)[C@H](C)[C@H]12,–,–,–,–,–
0.049 µg/mL,6.25 µg/mL,0.781 µg/mL,0.049 µg/mL,12.5 µg/mL,0.025 µg/mL,0.195 µg/mL,0.025 µg/mL,0.007 µg/mL,C[C@@H](O)[C@H]1C(=O)N2C(C(=O)O)=C(S[C@@H]3CN[C@H](C(=O)NCCC(=O)N4CCCC4)C3)[C@H](C)[C@H]12,–,–,–,–,–
0.049 µg/mL,1.56 µg/mL,0.195 µg/mL,0.049 µg/mL,12.5 µg/mL,0.025 µg/mL,0.195 µg/mL,0.025 µg/mL,0.007 µg/mL,COC(=O)CCNC(=O)[C@@H]1C[C@H](SC2=C(C(=O)O)N3C(=O)[C@H]([C@@H](C)O)[C@H]3[C@H]2C)CN1,–,–,–,–,–
0.049 µg/mL,0.391 µg/mL,0.195 µg/mL,0.049 µg/mL,12.5 µg/mL,0.025 µg/mL,0.195 µg/mL,0.025 µg/mL,0.007 µg/mL,C[C@@H](O)[C@H]1C(=O)N2C(C(=O)O)=C(S[C@@H]3CN[C@H](C(=O)NCCC(N)=O)C3)[C@H](C)[C@H]12,2600%,–,–,–,–
0.049 µg/mL,1.56 µg/mL,0.195 µg/mL,0.049 µg/mL,12.5 µg/mL,0.025 µg/mL,0.195 µg/mL,0.025 µg/mL,0.007 µg/mL,C[C@@H](O)[C@H]1C(=O)N2C(C(=O)O)=C(S[C@@H]3CN[C@H](C(=O)NCCS(=O)(=O)N(C)C)C3)[C@H](C)[C@H]12,–,–,–,–,–
0.025 µg/mL,6.25 µg/mL,0.391 µg/mL,0.025 µg/mL,6.25 µg/mL,0.013 µg/mL,0.098 µg/mL,0.013 µg/mL,0.004 µg/mL,C[C@@H](O)[C@H]1C(=O)N2C(C(=O)O)=C(S[C@@H]3CN[C@H](C(=O)NCCS(=O)(=O)N4CCCC4)C3)[C@H](C)[C@H]12,–,–,–,–,–
0.098 µg/mL,6.25 µg/mL,3.12 µg/mL,0.098 µg/mL,50 µg/mL,0.049 µg/mL,1.56 µg/mL,0.049 µg/mL,0.049 µg/mL,C[C@@H](O)[C@H]1C(=O)N2C(C(=O)O)=C(S[C@@H]3CN[C@H](C(=O)NCCC(=O)O)C3)[C@H](C)[C@H]12,–,–,–,–,–
0.049 µg/mL,0.781 µg/mL,0.391 µg/mL,0.049 µg/mL,12.5 µg/mL,0.025 µg/mL,0.391 µg/mL,0.025 µg/mL,0.013 µg/mL,CNC(=O)CCNC(=O)[C@@H]1C[C@H](SC2=C(C(=O)O)N3C(=O)[C@H]([C@@H](C)O)[C@H]3[C@H]2C)CN1,–,–,–,–,–
0.049 µg/mL,1.56 µg/mL,0.391 µg/mL,0.049 µg/mL,12.5 µg/mL,0.025 µg/mL,0.195 µg/mL,0.025 µg/mL,0.007 µg/mL,C[C@@H](O)[C@H]1C(=O)N2C(C(=O)O)=C(S[C@@H]3CN[C@H](C(=O)NCCC(=O)N(C)C)C3)[C@H](C)[C@H]12,–,–,–,–,–
0.049 µg/mL,1.56 µg/mL,0.781 µg/mL,0.049 µg/mL,6.25 µg/mL,0.025 µg/mL,0.195 µg/mL,0.025 µg/mL,0.007 µg/mL,C=CCNS(=O)(=O)CCNC(=O)[C@@H]1C[C@H](SC2=C(C(=O)O)N3C(=O)[C@H]([C@@H](C)O)[C@H]3[C@H]2C)CN1,–,–,–,–,–

Structure (SMILES),MIC [1],MIC [2],MIC [3],MIC [4],MIC [5],MIC [6],MIC [7],MIC [8],MIC [9],Stability [10],Tmax [11],ED50 [12],ED50 [13],ED50 [14]
C[C@@H](O)[C@H]1C(=O)N2C(C(=O)O)=C(SCCNC=N)C[C@H]12 [IMIPENEM ANHYDROUS],0.391 µg/mL,0.781 µg/mL,0.195 µg/mL,0.781 µg/mL,1.56 µg/mL,0.195 µg/mL,0.013 µg/mL,0.195 µg/mL,0.004 µg/mL,10000%,–,–,–,–
C[C@@H](O)[C@H]1C(=O)N2C(C(=O)O)=C(S[C@@H]3CN[C@H](C(=O)NCCS(N)(=O)=O)C3)[C@H](C)[C@H]12,0.049 µg/mL,0.195 µg/mL,0.195 µg/mL,0.025 µg/mL,6.25 µg/mL,0.013 µg/mL,0.098 µg/mL,0.025 µg/mL,0.004 µg/mL,2400%,< 19.8 min,2.6 mg/kg,0.47 mg/kg,2.31 mg/kg
C[C@@H](O)[C@H]1C(=O)N2C(C(=O)O)=C(S[C@@H]3CN[C@H](C(=O)N(C)C)C3)[C@H](C)[C@H]12 [MEROPENEM],0.049 µg/mL,0.195 µg/mL,0.049 µg/mL,0.025 µg/mL,12.5 µg/mL,0.025 µg/mL,0.098 µg/mL,0.025 µg/mL,0.002 µg/mL,3200%,12.6 min,1.76 mg/kg,1.24 mg/kg,7.16 mg/kg
